Experiment: in vitro
Details: human, hela cells, % viability

SMILES	viability at 28.5 h, 10 µM [%]
Cc1ccc(NC(=O)c2cnc3scc(C)n3c2=O)cc1 [CBK287454]	107
O=C([C@@H]1C[C@@H](O)[C@H](O)[C@@H]2NC(=S)N(c3ccc4c(c3)OCO4)[C@@H]21)N1CCCCC1 [CBK288945]	87.3
O=C(CC(CN1CCCCC1)C(=O)O)Nc1cccc(O)c1 (centres unmarked) [CBK286788]	114
O=C(Cn1cc(C(=S)N2CCOCC2)c2ccccc21)Nc1ccc2c(c1)OCO2 [CBK266703]	94.6
CCCCN1C(=S)SC(C)(C)C1N(O)C(=O)C1CCCCC1 (centres unmarked) [CBK008915]	95.6
CCC1CCCCN1C(=O)c1ccc(C)c(Cl)c1 (centres unmarked) [CBK082756]	91.7
O=C(Cc1c[nH]c2ccccc12)Nc1cnc(-c2cccc(OC(F)(F)F)c2)c(-c2cccnc2)n1 [CBK036863]	108
O=C(CN1CCC(Cc2ccccc2)CC1)Nc1ccc(F)c(Cl)c1 [CBK126387]	92.4
CCC(=O)N1CCN(c2nc3ccc(OC)cc3s2)CC1 [CBK287721]	92.2
O=S(=O)(c1cccc2nsnc12)N1CCCN(Cc2ccsc2)CC1 [CBK038570]	105
C(=N\c1ccc(Cc2ccc(/N=C/c3cccnc3)cc2)cc1)/c1cccnc1 [CBK260884]	95
Cc1nn(C)c(Cl)c1S(=O)(=O)NCc1ccc(C(F)(F)F)c(F)c1 [CBK062111]	93.8
CS(=O)(=O)c1ccc(Cn2cc(CN3CCC(Sc4ccccn4)CC3)nn2)cc1 [CBK149475]	98.4
Cc1cccnc1C(Cc1ccsc1)NC(=O)Cn1ccnc1 (centres unmarked) [CBK284802]	94.1
CC(C)c1cccc(N2CC(C(=O)Nc3cc(S(C)(=O)=O)ccc3F)CC2=O)c1 (centres unmarked) [CBK296751]	96.8
N#Cc1c(NC(=O)CN2CCc3ccccc3C2)sc2c1CCCC2 [CBK269126]	105
Cc1cccc(CN(CCCN(C)C)Cc2ccc(C)o2)n1 [CBK283187]	98.2
Cc1ccc(Cl)cc1NC(=O)c1cc(NC(=O)C2CC=CCC2C(=O)O)ccc1N1CCOCC1 (centres unmarked) [CBK268479]	99.1
C(=C\c1nccnc1OCc1cccs1)/c1ccccc1 [CBK106883]	112
O=c1[nH]cc(-c2ccccc2)cc1CNc1cccc2ncccc12 [CBK284771]	77.1
FC(F)(F)c1nc2ccccc2nc1SCc1ccco1 [CBK107201]	85.9
COc1cc(-c2nc3ncccc3cc2NC(=O)C(C)C)cc(OC)c1OC [CBK073661]	96.6
CCOC(=O)Cc1csc(NS(=O)(=O)c2cc(C)c(Cl)cc2Cl)n1 [CBK012872]	91.3

SMILES	viability at 28.5 h, 10 µM [%]
CC(=O)c1ccc(-c2cnc(N)c(NC3CCCCC3)n2)s1 [CBK063596]	106
O=c1c2cn[nH]c2nc(SCc2ccc3c(c2)OCCO3)n1-c1ccccc1 [CBK266593]	91.8
CCOC(=O)N1CCC(NC(=O)N2CCCC(CO)C2)CC1 (centres unmarked) [CBK156345]	90.6
CNc1ncnc2c1ncn2C1CC(O)C(CO)O1 (centres unmarked) [CBK201308]	96.7
CC1(C)CC(N(Cc2ccncc2)Cc2ccoc2)CC(C)(C)N1 [CBK283269]	98.1
O=C(O)CCCC(=O)NCCc1ccc(Cl)cc1Cl [CBK296930]	88.8
NNC(=O)CNC(c1cc(Br)ccc1N)c1ccccc1Cl (centres unmarked) [CBK262977]	87.1
CCn1c(C)cc(C(=O)NC2CCN(c3ncccc3C#N)CC2)c1C [CBK306524]	87.8
O=C(c1cc(C2CC2)n[nH]1)N1CCn2cc(C(F)(F)F)nc2C1 [CBK284749]	81.6
COc1ccc(NC(=O)/C(=C\c2ccc3c(c2)OCO3)NC(=O)c2ccco2)cc1 [CBK263607]	86.3
CCOc1ccc(N2C(=O)CC(NC3CCN(c4ncccn4)CC3)C2=O)cc1 (centres unmarked) [CBK269972]	112
CNC(=O)CN1CCN(c2cc(C#N)ccc2C(F)(F)F)CC1=O [CBK306441]	93.6
CC1(C)CC2CC(C)(CN2Cc2c(O)ccc3cc(-c4nc(-c5ccc(Br)cc5)cs4)c(=O)oc23)C1 (centres unmarked) [CBK263831]	103
CCOC(=O)CNC(=O)c1cc2ccccc2c(=O)o1 [CBK058083]	97.9
N#CCCCN1CCC(Oc2nccnc2OCc2ccc(F)cc2)CC1 [CBK153643]	115
Cc1sc(NC(=S)NC(=O)C2CCCCC2)c(C(N)=O)c1C [CBK266273]	97.3
CSCCN1CCCN(c2nccc(OCc3ccc(Cl)c(Cl)c3)n2)CC1 [CBK083960]	70.5
CC(C)(C)c1ccc(-c2nc3ncccc3cc2N)cc1 [CBK067611]	94.4
CCn1nc(NC(=O)C2Cc3ccccc3CN2C)cc1C (centres unmarked) [CBK282133]	93.8
OC[C@H]1CCCN1c1nc(Br)cn2ccnc12 [CBK085496]	101
CCC(Sc1nnc2c3ccccc3n(C)c2n1)C(=O)Nc1sc2c(c1C#N)CCCC2 (centres unmarked) [CBK263031]	92.6
CC(O)(CC(=O)O)CC(=O)OCCc1ccc2c(c1)CCC2 (centres unmarked) [CBK017766]	95.2
O=C(c1cscn1)N1CCC(Cc2ccccc2)CC1 [CBK200188]	103

SMILES	viability at 28.5 h, 10 µM [%]
CCCCN(C)c1c(CC)nc2ccc(C(=O)Nc3ccc(OC)c(OC)c3)cn12 [CBK145445]	95.5
Cc1ccsc1CN(CCCO)Cc1cn(C)nc1C [CBK282983]	95.7
Cc1nn(CCC(=O)NC(c2ccccc2)c2cccnc2)c(C)c1C (centres unmarked) [CBK282547]	86.3
Cc1cnn(C(C)C(=O)N2CCc3c(nc(N(C)C)nc3N(C)C)C2)c1 (centres unmarked) [CBK307556]	109
CC(C)C(=O)N1CCCc2cc(C(O)CN3CCCCC3)ccc21 (centres unmarked) [CBK282127]	104
O=C(NC(C(=O)N/N=C/c1cccs1)c1n[nH]c(=O)c2ccccc12)c1ccccc1 (centres unmarked) [CBK261250]	98
CN(C)c1ccc(-c2cc(NCCc3ccncc3)ncn2)cc1 [CBK090849]	94.2
O=C(CN1C(=O)c2ccccc2C1=O)Nc1cccc(C(=O)O)c1 [CBK287040]	110
CCOc1cc(CN2CCN(C/C=C/c3ccccc3)CC2)ccc1OC [CBK261573]	87.2
COc1ccc(Nc2nnc(-c3ccc(C(N)=O)cc3)c3ccccc23)cc1 [CBK264246]	92.7
CCc1c(C)nn(-c2ccccc2Cl)c1-c1ccccc1 [CBK016736]	106
Cc1cc(C)c(OCC(=O)Nc2cccc(-c3nc4cc(C(C)C)ccc4o3)c2)c([N+](=O)[O-])c1 [CBK264680]	88.6
Cc1ccc(S(=O)(=O)N(CC(=O)NCc2ccco2)c2cc(C)cc(C)c2)cc1 [CBK263982]	86.2
Cc1cc(C)n(CCCn2cncc2-c2cn(C)nc2C)n1 [CBK281772]	94.8
O=C(Nc1ccccc1)N[C@H]1CO[C@H]2[C@@H]1OC[C@H]2OCc1ccccc1 [CBK289488]	109
O=C(CSc1nnc(-c2ccncc2)n1C1CCCCC1)Nc1ncc2c(n1)CC(c1ccccc1)CC2=O (centres unmarked) [CBK266177]	94.3
COc1cc(C(CC(C)NC(C)(C)C)c2ccccc2)ccc1OCc1ccccc1 (centres unmarked) [CBK017901]	79.8
CCOc1ccc2cc(C3CC(c4ccccc4)=NN3C(=O)CCC(=O)O)c(Cl)nc2c1 (centres unmarked) [CBK296097]	114
O=C1N[C@H]2CCCN(C(=O)Cn3cccnc3=O)[C@H]2CCCCCOc2ccccc21 [CBK292096]	109
CSc1ccc(CN(C)c2cncc(-n3cccn3)n2)cc1 [CBK298326]	91.2
COc1ccc(-n2ncc3c(N4CCN(Cc5ccccc5)CC4)ncnc32)cc1 [CBK265879]	88.8
CC(=O)Nc1ccc(C(=O)NCc2ccc(S(N)(=O)=O)cc2)cc1 [CBK263642]	105
COc1nccnc1N1CCN(CC(N)=O)CC1 [CBK084219]	98.4

SMILES	viability at 28.5 h, 10 µM [%]
COc1ccc([N+](=O)[O-])cc1NC(=O)C1C2CCC(C2=C(C)C)C1C(=O)O (centres unmarked) [CBK263686]	93.2
Cc1cc(NC(=O)c2nn(-c3ncccn3)c3ccccc23)n(C)n1 [CBK048505]	92.3
Cc1csc(C(Cc2cccs2)NC(=O)Cc2ccccn2)n1 (centres unmarked) [CBK285005]	94.3
Cc1ccc2c(c1)C1(CCN(CC3CC3)CC1)NC(=O)C2 [CBK040217]	94.8
c1ccc(N2CCOCC2)c(COc2cncc(N3CCNCC3)n2)c1 [CBK172351G]	105
COc1ccc(F)c(CNCC2CCN(C(=O)OC(C)(C)C)CC2)c1 [CBK056716]	95.9
Cc1cc(S(=O)(=O)NCCC#N)c(C)cc1Cl [CBK043680]	113
O=C(C1COc2ccccc2O1)N1CCN(c2ncccn2)CC1 (centres unmarked) [CBK144502]	116
Cc1cc2cc(C(=O)NCCCN3Cc4ccccc4C3)ccc2o1 [CBK282624]	97.4
CN(C)c1nc2ccc(OCCN3CCOCC3)cc2s1 [CBK261135]	82.5
CCN(C(=O)c1cc(C)nc2ccccc12)C1CCN(C)CC1 [CBK281920]	106
Cc1ccc(S(=O)(=O)NC[C@H]2O[C@@H](CC(=O)N3CCc4ccccc43)[C@H](O)[C@@H]2O)cc1 [CBK288917]	91.3
CC(C)CN(CC(N)=O)CC(=O)NC1(c2ccccc2)CCC1 [CBK066883T]	88.9
Cn1c(=O)[nH]c(=O)c2cnc(-c3ccc(Cl)cc3)nc21 [CBK291208]	95.6
CC(=O)NCCSc1nccnc1N1CCCC1 [CBK105619]	91.7
N#Cc1ccc(-c2cnc(NC(=O)C(F)(F)F)c(-c3ccc(C(=O)N4CCOCC4)cc3)n2)cc1 [CBK093819]	94.2
Brc1ccc2[nH]c3c(c2c1)CCOC31CCN(CC2CCCCO2)CC1 (centres unmarked) [CBK040648]	87.8
CN(C)c1ncnc2[nH]ncc12 [CBK016810]	115
Cc1ccc(Cl)c(NC(=O)NCCN2CCN(c3ccccc3[N+](=O)[O-])CC2)c1 [CBK267293]	94.5
Cn1cccc1-c1cc(C(=O)N/N=C/c2cccc(O)c2)[nH]n1 [CBK263397]	89.9
